Data on two substances can be found in patent publication US20140161767A1, “FOLLICLE-STIMULATING HORMONE (FSH)/LYTIC DOMAIN FUSION CONSTRUCTS AND METHODS OF MAKING AND USING SAME” (BOARD OF SUPERVISORS OF LOUISIANA STATE UNIVERSITY AND …, priority 2012, published 2014).

One assay concerns MDA-MB 435S cells. The experiment in a line: In vitro kinetics of cytotoxicity (MTT), MDA-MB-435S cells. Format: cell-based, human. The following applies: all cell lines presenting functional LHRH receptors (MDA-MB-435, MCF-7, OVCAR-3). The text has this:
Membranes of non-cancerous cell lines are neutral and are resistant to cytolytic peptides, in contrast to cancer cell lines, which have a high phosphatidic acid content in their outer membrane.
The breast cancer cell lines studied were MDA-MB-4355 (estrogen receptor alpha negative), MCF-7 and T47D (estrogen receptor alpha positive), ovarian cancer cell lines (OVCAR-3 and SKOV-3), prostate cancer (LNCaP), the non-malignant breast epithelial cell line MCF-10A and the mouse fibroblast cell line NIH:3T3.
Cells were seeded into 96 well plates at a densitiy of 10,000 cells/well. […] Controls contained USP saline or 0.1% TritonX-100™ as reference for 0 and 100% cell death, respectively. […] Cell viability was assessed through formazan conversion assay (MTT assay, (CellTiter 96 Aqueous One, Promega # G3582). Formazan conversion was determined using a BioRad Benchmark Plus microplate spectrophotometer dual wavelengths at 490/630 nm at room temperature).
Data were calculated as fraction of absorption in TritonX-100™ containing wells representing 100% cell death versus 0% cell death in saline containing wells. Cytotoxicity was determined as IC50 using GraphPad Prism version 5.01 for Windows, GraphPad Software, San Diego Calif. […] 4 wells of each individual set of two 96 well plates were compared and analyzed. Statistical analysis for significance was determined by a two-tailed Student's T-test.

For a further assay, the system named is MDA-MB-435S xenograft. The experiment in a line: MDA-MB-435S xenograft, minimal effective dose, once weekly for 3 weeks. The class given is in vivo, mice. The protocol: To determine the minimal effective dose necessary to reduce MDA-MB-435S xenograft weights in a single dose regimen, Nu/Nu female mice, outbred strain, age 5 weeks (Charles River), were injected (s.c.) into the interscapular region with a MDA-MB-435S (passage #249)/Matrigel suspension (2.4×10^6 cells/mouse) [Leuschner 2006].
Each group consisted of 16 mice, which were injected once a week for 3 weeks. A group of 16 mice was sacrificed at the time of treatment start to serve as baseline. Saline injections served as control groups. During the entire study tumor volumes were recorded twice weekly.
Treatment started on day 16 after tumor cell injection when the tumors were established and continued on days 23 and 30. All remaining mice were necropsied 37 days after tumor cell injection.
Treatment response was determined by tumor weights and tumor weight change at necropsy compared to saline controls and untargeted Phor18 treatment. Primary tumors were collected, weighed and prepared for histological evaluation in formalin fixation with […]. Statistical evaluation of data sets were conducted in GraphPad Prizm 4 and significance calculated by Wilcoxon signed-rank test.

The test system of another assay is OVCAR-3 xenograft. The experiment in a line: OVCAR-3 ovarian cancer xenograft. The class given is in vivo. The following applies: for Tumor weights at necropsy: Phor18-LHRH: 2 and 0.2 mg/kg vs saline and Phor18, p<0.05; for Tumor volume: during treatment. The protocol: The xenograft model of the OVCAR-3 human ovarian cancer cell line that present functional LHRH receptors was used in this study. OVCAR-3 represents a slow growing xenograft model and secretes the tumor marker (cancer antigen 125, or CA125). It's secretion can be used as treatment response and is a measure of drug activity.
In brief, Nu/Nu female mice, inbred strain, age 5 weeks (Harlan-Sprague Dawley) were injected subcutaneously with a NIH:OVCAR-3 cells/Matrigel suspension (4.6×10^6 cells/mouse). Treatment was started on day 33 after tumor cell injection when the tumors were established and continued on days 41 and 47. The doses for the 3 weekly injections were 0.02, 0.2 and 2 mg/kg body weight, given as a single bolus intravenous injection via lateral tail vein administered once a week for three weeks on days 33, 41 and 47. Necropsies were conducted on day 52. Data are presented as mean SEM. Arrows show dosing.
A group of 9 tumor bearing mice was sacrificed on day 33 and served as baseline group. All mice were necropsied 51-52 days after tumor cell injection. Tumor volumes and bodyweights were recorded twice weekly during the study, as well as overall veterinarian examination of mice was conducted.
Primary tumors, liver, kidney, pancreas, heart, lung, and spleen were collected, fixed in formalin and prepared for histological evaluation. Tumor weights were measured at necropsy, part of the tumors were frozen at −80° C. for LH/CG and LHRH receptor assay determination.
As a biomarker for drug activity, CA125 was determined in serum, collected from each individual mouse at necropsy using a Enzyme Linked Immunoassay for quantitative determination of ovarian cancer antigen CA125 (Assay kit Genway, Biotech, Inc. San Diego, Calif., Catalog #40-052-115009, # BC-1013 according to the manufacturer).
LHRH receptor levels were assessed from formalin fixed tumors. Quantitative immunoperoxidase image analysis was conducted with the Ventana Image Analysis System (VIAS) adjunctive computer assisted image analysis system functionally connected to an interactive microscope (Axio Imager). The quantitative analysis was conducted with the program for quantification of Her2/neu receptor that included morphometric and colorimetric analysis. Receptor status results were reported as percentage of cells showing positive staining of the LHRH receptors under the following criteria: 0 non-immunoreactive, 1+: 1-25% positive, 2+: 26 50% positive, 3+: 51-75% positive cells.

The test system of another assay is PC-3 xenograft. As to the kind of experiment: PC-3 prostate cancer xenograft, Phor18-LHRH. The class given is in vivo, mice. The note with it: for Overall efficacy in PC-3 xenografts: mouse, in vivo. The protocol:
PC-3 xenografts untreated cause significant weight loss in mice.
In brief, Nu/Nu male mice, outbred strain, age 6 weeks (Charles River) were injected subcutaneously with a PC-3 cells/Matrigel suspension (1×10^6 cells/mouse). Treatment was started on day 15 after tumor cell injection when the tumors were established and continued on days 22 and 29. The doses for the 3 weekly injections were 2, 0.2 and 0.02 mg/kg body weight, given as a bolus single intravenous injection via lateral tail vein.
A group of 12 tumor bearing mice was sacrificed on day 15 and served as baseline group. All mice were necropsied 35 and 36 days after tumor cell injection. Tumor volumes and bodyweights were recorded twice weekly during the study, as well as overall veterinarian examination of mice was conducted.
Primary tumors, liver, kidney, pancreas, heart, lung, and spleen were collected, fixed in formalin and prepared for histological evaluation. Tumor weights were measured at necropsy, part of the tumors were frozen at 80° C. for LH/CG and LHRH receptor assay determination.

Take KFAKFAK KFAKFAK KFAK [Phor18]: in the assay with MDA-MB 435S cells, the “Incubation time to maximum effect” value was found to be 24 h. Besides, the “Tumor volumes and tumor weights” value with MDA-MB-435S xenograft (mouse, in vivo) is listed as “did not decrease tumor weights or destroy tumor tissue”. The “Tumor weights at necropsy” value in the assay with OVCAR-3 xenograft is “not effective”. For the same substance, in the assay with OVCAR-3 xenograft (listed as CLIP71), the Tumor volume entry is listed as “no reduction”. In addition, the “Overall efficacy in PC-3 xenografts” value in the assay with PC-3 xenograft is recorded as “ineffective”.

Take “KFAKFAKKFAKFAKKFAKQHWSYGLRPG [Phor18-LHRH]”: in the assay on MDA-MB 435S cells, the “Incubation time to maximum effect” value fell in the range of 0.5 to 1 h. In the assay with MDA-MB-435S xenograft (hematoxylin/eosin), the “Remarks / histological evaluation of tumors” value is given as “significant necrosis”. For the same substance, the “Lowest dose with significant necrosis in tumors” value in the assay on MDA-MB-435S xenograft (mouse, in vivo) amounted to 0.0002 mg/kg. Besides, in the assay with OVCAR-3 xenograft (42 days after tumor cell injection, p<0.001), the “Lowest concentration with tumor volume reduction compared to baseline” value is 0.2 mg/kg. Further, in the assay on OVCAR-3 xenograft, the “Tumor weights at necropsy” value is “Reduced tumor weights” and the Tumor volume result is listed as “decreased”. The “Dose with greatest tumor regression compared to treatment start” value in the assay with OVCAR-3 xenograft (p<0.03 vs baseline) was found to be 0.2 mg/kg. The “Lowest concentration with tumor volume reduction compared to saline controls and CLIP71” value in the assay on PC-3 xenograft (22 days after tumor cell injection, p<0.001) was found to be 0.002 mg/kg. The “Tumor weights compared to saline controls and CLIP-71” value in the assay with PC-3 xenograft (all treated groups) is on record as “significantly reduced”. Further, the Tumor volume entry in the assay on PC-3 xenograft (during treatment) is reported as “decreased”. Further, the “Overall efficacy in PC-3 xenografts” value in the assay on PC-3 xenograft is “effective in arresting tumor growth”.
